Reference: patent US9375434B2, “Antitumor effect potentiator composed of imidazooxazine compound” (Taiho Pharmaceutical Co., Ltd., priority 2012, dated 2016)

Key:
[1] = test system: Human ovarian cancer cell line (A2780); assay: Potentiation of antitumor effect of irinotecan, A2780 subcutaneous implant in nude mice (Test Example 5); assay type: in vivo, BALB/cA Jcl-nu/nu mice; conditions: irinotecan 75 mg/kg/day day 1, 8; route printed p.o.
Description: (§1) As an index of antitumor effect, the TV at Day 15 was measured for each of the drug administration groups, and the relative tumor volume (RTV) relative to Day 1 and T/C (%) were calculated by the following formulas to evaluate the antitumor effect.
TV (mm^3)=(length×width^2)/2 RTV=(TV at Day 15)/(TV at Day 1) T/C(%)=(average RTV value of the test liquid administration group)/(average RTV value of the control group)×100
Human ovarian cancer cell line (A2780) was subcutaneously implanted into the right flank of 7-week-old male BALB/cA Jcl-nu/nu mice, and was used in the same manner as in Test Example 1. […] Further, the test liquid of Compound-I was prepared by adjusting its dose to 16 mg/kg/day.
The effect of the combined administration was also statistically determined in the same manner as in Test Example 1. […] FIG. 9 and Table 14 show the results. Further, the change in the body weight over time was evaluated as an index of toxicity in the same manner as in Test Example 1.

[2] = test system: Human stomach cancer cell line (NCI-N87); assay: Potentiation of antitumor effect of everolimus, NCI-N87 subcutaneous implant in nude mice (Test Example 7); assay type: in vivo, BALB/cA Jcl-nu/nu mice; conditions: everolimus 5 mg/kg/day p.o. day 1-14
Description: as §1, with “effect. […] In the figure, the asterisk represents a result having a statistically significant difference compared with the single-drug administration group.” for “effect.”
FIG. 1 and Table 10 show the results. TV (mm^3)=(length×width^2)/2 RTV=(TV at Day 15)/(TV at Day 1) T/C(%)=(average RTV value of the test liquid administration group)/(average RTV value of the control group)×100
Human stomach cancer cell line (NCI-N87) was subcutaneously implanted into the right flank of 7-week-old male BALB/cA Jcl-nu/nu mice, and was used in the same manner as in Test Example 1.
In the group receiving only everolimus (IS Chemical Technology), the test liquid was prepared to enable administration at an everolimus dose of 5 mg/kg/day. A vehicle of 5% ethyl alcohol/5% PEG400/4% Tween 20/86% distilled water was used. In the groups receiving only Compound-I, the test liquid was prepared by diluting Compound-I with 0.5% HPMC to enable administration at a Compound-I dose of 16 mg/kg/day. In the combined administration group, Compound-I was administered at a dose of 16 mg/kg/day, and everolimus was administered at a dose of 5 mg/kg/day. Both Compound-I and everolimus were orally administered once a day for 14 days from Day 1, and the evaluation was performed in the same manner as in Test Example 1. FIG. 13 and Table 16 show the results.
In the figure and the table, the asterisk represents a result having a statistically significant difference compared with the single-drug administration group.

[3] = test system: Human ovarian cancer cell line (A2780); assay: Potentiation of antitumor effect of carboplatin, A2780 subcutaneous implant (Test Example 3); assay type: in vivo, nude rats; conditions: carboplatin 50 mg/kg/day i.v. day 1, 8
Description: In the figure, the asterisk represents a result having a statistically significant difference compared with the single-drug administration group. FIG. 1 and Table 10 show the results. […] Carboplatin was prepared by diluting a […] injection (Bristol-Myers Squibb, 50 mg/5 mL) two-fold with physiological saline to enable administration at a carboplatin dose of 50 mg/kg/day. Further, the test liquid of Compound-I was prepared by adjusting its dose to 16 mg/kg/day. […] The single-drug administration group was administered 0.5% HPMC or a physiological saline as a vehicle instead of Compound-I or carboplatin. […] FIG. 5 and Table 12 show the results. […] The effect of the combined administration was also statistically determined in the same manner as in Test Example 1. In the figure and the table, the asterisk represents a result having a statistically significant difference compared with the single-drug administration group.

[4] = test system: Human ovarian cancer cell line (A2780); assay: Potentiation of antitumor effect of doxorubicin, A2780 subcutaneous implant in nude mice (Test Example 6); assay type: in vivo, BALB/cA Jcl-nu/nu mice; conditions: doxorubicin 7 mg/kg/day day 1, 8
Description: In the groups receiving only Compound-I, the test liquid was prepared by diluting Compound-I with 0.5% HPMC to enable administration at a Compound-I dose of 16 mg/kg/day. […] The effect of the combined administration was also statistically determined in the same manner as in Test Example 1.

[5] = test system: Human stomach cancer cell line (NCI-N87); assay: Potentiation of antitumor effect of lapatinib, NCI-N87 subcutaneous implant in nude mice (Test Example 4); assay type: in vivo, BALB/cA Jcl-nu/nu mice; conditions: lapatinib 100 mg/kg/day p.o. day 1-14 (q.d.)
Description: In the figure, the asterisk represents a result having a statistically significant difference compared with the single-drug administration group. FIG. 1 and Table 10 show the results. […] Lapatinib was prepared by adjusting its dose to 100 mg/kg/day. Further, the test liquid of Compound-I was prepared by adjusting its dose to 16 mg/kg/day. […] The effect of the combined administration was also statistically determined in the same manner as in Test Example 1. In the figure and the table, the asterisk represents a result having a statistically significant difference compared with the single-drug administration group. FIG. 7 and Table 13 show the results.

[6] = test system: Human ovarian cancer A2780 cell line; assay: Potentiation of antitumor effect of paclitaxel, A2780 subcutaneous implant in nude mice (Test Example 1); assay type: in vivo, BALB/cA Jcl-nu/nu mice; conditions: paclitaxel 60 mg/kg/day i.v. day 1, 8
Description: Human ovarian cancer A2780 cell line was subcutaneously implanted into the right flank of 7-week-old male BALB/cA Jcl-nu/nu mice. After the implant, the length (mm) and the width (mm) of the tumor were measured, and the tumor volume (TV) was calculated. Thereafter, the mice were divided into groups so that the average TV is equalized in each group. The day of grouping (n=5) is referred to as Day 0. […] Test liquids for the groups receiving only Compound-I were prepared by diluting Compound-I with 0.5% hydroxypropyl methylcellulose (HPMC) so as to enable administration at a Compound-I dose of 8 mg/kg/day, 16 mg/kg/day, and 24 mg/kg/day. […] In the groups receiving the two drugs, Compound-I was administered at doses of 8 mg/kg/day, 16 mg/kg/day, and 24 mg/kg/day, and paclitaxel was administered at a dose of 60 mg/kg/day. […] In the figure, the asterisk represents a result having a statistically significant difference compared with the single-drug administration group. FIG. 1 and Table 10 show the results.

[7] = test system: Human stomach cancer cell line (NCI-N87); assay: Potentiation of antitumor effect of paclitaxel, NCI-N87 subcutaneous implant in nude mice (Test Example 2); assay type: in vivo, BALB/cA Jcl-nu/nu mice; conditions: paclitaxel 60 mg/kg/day i.v. day 1, 8
Description: In the figure, the asterisk represents a result having a statistically significant difference compared with the single-drug administration group. FIG. 1 and Table 10 show the results. […] Ltd.) was prepared to enable administration at a paclitaxel dose of 60 mg/kg/day. Further, test liquids for the groups receiving only Compound-I were prepared to enable administration at Compound-I doses of 8 mg/kg/day, 16 mg/kg/day, and 24 mg/kg/day. […] In the groups receiving the two drugs, Compound-I was administered at doses of 8 mg/kg/day, 16 mg/kg/day, and 24 mg/kg/day, and paclitaxel was administered at a dose of 60 mg/kg/day. The evaluation was performed in the same manner as in Test Example 1. The effect of the combined administration was also statistically determined in the same manner as in Test Example 1. In the figure and the table, the asterisk represents a result having a statistically significant difference compared with the single-drug administration group. FIG. 3 and Table 11 show the results.

Structure (SMILES): CCc1c2c(nc3ccc(OC(=O)N4CCC(N5CCCCC5)CC4)cc13)-c1cc3c(c(=O)n1C2)COC(=O)[C@]3(O)CC [irinotecan, reference compound]
- RTV day 15 Mean ± SD [1]: 11.92 ± 3.68

Structure (SMILES): CO[C@H]1C[C@@H]2CC[C@@H](C)[C@@](O)(O2)C(=O)C(=O)N2CCCC[C@H]2C(=O)O[C@H]([C@H](C)C[C@@H]2CC[C@@H](OCCO)[C@H](OC)C2)CC(=O)[C@H](C)/C=C(\C)[C@@H](O)[C@@H](OC)C(=O)[C@H](C)C[C@H](C)/C=C/C=C/C=C/1C [Everolimus, everolimus, reference compound]
- RTV day 15 Mean ± SD [2]: 1.32 ± 0.11
- T/C (%) [2]: 47.3%

Structure (SMILES): N.N.O=C([O-])C1(C(=O)[O-])CCC1.[Pt+2] [Carboplatin, carboplatin, reference compound]
- RTV day 15 Mean ± SD [3]: 20.99 ± 4.57
- T/C (%) [3]: 82%

Structure (SMILES): COc1cccc2c1C(=O)c1c(O)c3c(c(O)c1C2=O)C[C@@](O)(C(=O)CO)C[C@@H]3O[C@H]1C[C@H](N)[C@H](O)[C@H](C)O1 [Doxorubicine, doxorubicin, reference compound]
- T/C (%) [4]: 45%

Structure (SMILES): CS(=O)(=O)CCNCc1ccc(-c2ccc3ncnc(Nc4ccc(OCc5cccc(F)c5)c(Cl)c4)c3c2)o1 [Lapatinib, lapatinib, reference compound]
- RTV day 15 Mean ± SD [5]: 1.37 ± 0.28
- T/C (%) [5]: 51%

Structure (SMILES): CC(=O)O[C@H]1C(=O)[C@@]2(C)[C@H]([C@H](OC(=O)c3ccccc3)[C@]3(O)C[C@H](OC(=O)[C@H](O)[C@@H](NC(=O)c4ccccc4)c4ccccc4)C(C)=C1C3(C)C)[C@]1(OC(C)=O)CO[C@@H]1C[C@@H]2O [paclitaxel, reference compound]
- RTV day 15 Mean ± SD [6]: 6.96 ± 1.41
- T/C (%) [6]: 27%
- RTV day 15 Mean ± SD [7]: 1.09 ± 0.40
- T/C (%) [7]: 32%
